Source: US9233968B1, “Kinase inhibitors” (Allergan, Inc., priority 2014, dated 2016)

Key:
[1] = target: VEGFR2 (cytoplasmic domain KDR protein) (Homo sapiens (Human), UniProt P35968); assay: VEGFR2 Kinase Assay (biochemical KDR kinase assay); details: 2.7 μM ATP, poly-Glu-Tyr substrate; read-out: Enzyme VEGFR2 IC50
Procedure: Biochemical KDR kinase assays were performed in 96 well microtiter plates that were coated overnight with 75 μg/well of poly-Glu-Tyr (4:1) in 10 mM Phosphate Buffered Saline (PBS), pH 7.4. The coated plates were washed with 2 mls per well PBS+0.05% Tween-20 (PBS-T), blocked by incubation with PBS containing 1% BSA, then washed with 2 mls per well PBS-T prior to starting the reaction. Reactions were carried out in 100 μL reaction volumes containing 2.7 μM ATP in kinase buffer (50 mM Hepes buffer pH 7.4, 20 mM MgCl2, 0.1 mM MnCl2 and 0.2 mM Na3VO4). […] Reactions were initiated by the addition 20 μl per well of kinase buffer containing 200-300 ng purified cytoplasmic domain KDR protein (BPS Bioscience, San Diego, Calif.). Following a 15 minute incubation at 30° C., the reactions were washed 2 mls per well PBS-T. 100 μl of a monoclonal anti-phosphotyrosine antibody-peroxidase conjugate diluted 1:10,000 in PBS-T was added to the wells for 30 minutes. Following a 2 mls per well wash with PBS-Tween-20, 100 μl of O-Phenylenediamine Dihydrochloride in phosphate-citrate buffer, containing urea hydrogen peroxide, was added to the wells for 7-10 minutes as a colorimetric substrate for the peroxidase. The reaction was terminated by the addition of 100 μl of 2.5N H2SO4 to each well and read using a microplate ELISA reader set at 492 nm. IC50 values for compound inhibition were calculated directly from graphs of optical density (arbitrary units) versus compound concentration following subtraction of blank values.

PDGFRβ = PDGFRβ (Homo sapiens (Human), UniProt P09619); assay: PDGFRβ Cellular Assay (FLIPR, PDGF-induced intracellular calcium in NHDF-Ad); assay type: cell-based; details: PDGF-BB stimulation 30 ng/mL, read-out: Receptor PDGFRβ IC50
Procedure: (§1) Automated FLIPR (Fluorometric Imaging Plate Reader) technology was used to screen for inhibitors of PDGF-induced increases in intracellular calcium levels in fluorescent dye loaded endothelial cells. NHDF-Ad (Normal Human Dermal Fibroblasts, Adult; Lonza) were seeded in 384-well fibronectin coated black-walled plates overnight at 37° C./5% CO2. Cells were loaded with calcium indicator Fluo-4 for 45 minutes at 37° C. Cells were washed 2 times (Elx405, Biotek Instruments) to remove extracellular dye. For screening, cells were pre-incubated with test agents for 30 minutes, at a single concentration (10 μM) or at concentrations ranging from 0.0001 to 10.0 μM followed by PDGF-BB stimulation (30 ng/mL). […] Data were generated by determining max-min fluorescence levels for unstimulated, stimulated, and drug treated samples. IC50 values for test compounds were calculated from % inhibition of PDGF-BB stimulated responses in the absence of inhibitor.

VEGFR2 = VEGFR2 (Homo sapiens (Human), UniProt P35968); assay: VEGFR2 Cellular Assay (FLIPR, VEGF induced intracellular calcium in HUVEC); assay type: cell-based; details: VEGF165 stimulation 10 ng/mL, read-out: Receptor VEGFR2 IC50
Procedure: as §1, with “VEGFR2 Cellular Assay Automated” for “Automated”, “of VEGF induced” for “of PDGF-induced”, “cells. HUVEC (human umbilical vein endothelial cells) (Clonetics)” for “cells. NHDF-Ad (Normal Human Dermal Fibroblasts, Adult; Lonza)”, “by VEGF165” for “by PDGF-BB”, “stimulation (10” for “stimulation (30”, “of VEGF” for “of PDGF-BB”

[2] = target: PDGFRβ (cytoplasmic domain PDGFR-b protein) (Homo sapiens (Human), UniProt P09619); assay: PDGFRβ Kinase Assay; assay type: biochemical; details: 36 μM ATP, poly-Glu-Tyr substrate; read-out: Enzyme PDGFRβ IC50
Procedure: Biochemical PDGFRβ kinase assays were performed in 96 well microtiter plates that were coated overnight with 75 μg of poly-Glu-Tyr (4:1) in 10 mM Phosphate Buffered Saline (PBS), pH 7.4. The coated plates were washed with 2 mls per well PBS+0.05% Tween-20 (PBS-T), blocked by incubation with PBS containing 1% BSA, then washed with 2 mls per well PBS-T prior to starting the reaction. […] Reactions were initiated by the addition 20 μl per well of kinase buffer containing 200-300 ng purified cytoplasmic domain PDGFR-b protein (Millipore). Following a 60 minute incubation at 30° C., the reactions were washed 2 mls per well PBS-T. 100 μl of a monoclonal anti-phosphotyrosine antibody-peroxidase conjugate diluted 1:10,000 in PBS-T was added to the wells for 30 minutes. Following a 2 mls per well wash with PBS-Tween-20, 100 μl of O-Phenylenediamine Dihydrochloride in phosphate-citrate buffer, containing urea hydrogen peroxide, was added to the wells for 7-10 minutes as a colorimetric substrate for the peroxidase. […] IC50 values for compound inhibition were calculated directly from graphs of optical density (arbitrary units) versus compound concentration following subtraction of blank values.

Chain of VEGFR2 (cytoplasmic domain KDR protein) (P35968 786-1356): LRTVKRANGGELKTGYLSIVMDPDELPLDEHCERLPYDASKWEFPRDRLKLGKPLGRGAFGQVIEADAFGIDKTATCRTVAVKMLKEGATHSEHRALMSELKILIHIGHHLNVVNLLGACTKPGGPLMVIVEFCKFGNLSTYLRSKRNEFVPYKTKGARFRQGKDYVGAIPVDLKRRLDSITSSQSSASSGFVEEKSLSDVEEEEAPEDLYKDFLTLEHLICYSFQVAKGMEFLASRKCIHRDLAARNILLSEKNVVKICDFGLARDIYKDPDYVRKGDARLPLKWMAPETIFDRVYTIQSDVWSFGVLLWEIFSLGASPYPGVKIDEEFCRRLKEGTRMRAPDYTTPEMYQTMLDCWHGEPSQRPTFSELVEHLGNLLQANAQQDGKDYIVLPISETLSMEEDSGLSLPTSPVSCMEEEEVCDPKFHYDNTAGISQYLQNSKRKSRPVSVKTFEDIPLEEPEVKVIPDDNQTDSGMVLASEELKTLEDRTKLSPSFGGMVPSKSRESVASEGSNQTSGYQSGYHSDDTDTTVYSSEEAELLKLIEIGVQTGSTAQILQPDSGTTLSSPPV
Chain of PDGFRβ (P09619 33-1106): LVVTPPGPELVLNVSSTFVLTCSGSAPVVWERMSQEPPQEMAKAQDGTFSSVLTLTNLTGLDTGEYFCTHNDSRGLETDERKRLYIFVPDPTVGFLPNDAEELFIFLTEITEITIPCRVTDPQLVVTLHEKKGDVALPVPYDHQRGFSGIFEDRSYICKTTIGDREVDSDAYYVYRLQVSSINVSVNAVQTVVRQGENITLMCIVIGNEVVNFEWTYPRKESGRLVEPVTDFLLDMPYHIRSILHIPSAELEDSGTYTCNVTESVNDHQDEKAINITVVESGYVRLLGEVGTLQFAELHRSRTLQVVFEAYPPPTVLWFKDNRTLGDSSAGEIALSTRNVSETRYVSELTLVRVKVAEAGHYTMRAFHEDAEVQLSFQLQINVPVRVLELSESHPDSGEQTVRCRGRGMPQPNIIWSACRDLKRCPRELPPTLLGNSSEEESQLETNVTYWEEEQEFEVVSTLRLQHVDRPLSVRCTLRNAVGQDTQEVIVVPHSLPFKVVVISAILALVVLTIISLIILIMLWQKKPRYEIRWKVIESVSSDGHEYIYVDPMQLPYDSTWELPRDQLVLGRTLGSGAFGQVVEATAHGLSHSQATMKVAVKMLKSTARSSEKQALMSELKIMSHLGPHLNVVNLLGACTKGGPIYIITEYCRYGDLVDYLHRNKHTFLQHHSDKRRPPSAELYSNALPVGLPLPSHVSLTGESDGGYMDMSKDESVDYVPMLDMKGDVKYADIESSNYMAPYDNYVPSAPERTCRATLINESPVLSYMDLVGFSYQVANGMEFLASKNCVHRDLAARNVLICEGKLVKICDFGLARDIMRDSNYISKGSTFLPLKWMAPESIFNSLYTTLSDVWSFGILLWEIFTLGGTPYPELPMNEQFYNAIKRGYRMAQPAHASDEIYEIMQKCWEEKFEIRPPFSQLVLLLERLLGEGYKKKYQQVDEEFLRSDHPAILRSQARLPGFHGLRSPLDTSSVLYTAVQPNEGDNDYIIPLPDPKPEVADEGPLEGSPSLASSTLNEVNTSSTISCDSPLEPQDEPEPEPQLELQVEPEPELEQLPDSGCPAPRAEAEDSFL
Chain of PDGFRβ (cytoplasmic domain PDGFR-b protein) (P09619 554-1106): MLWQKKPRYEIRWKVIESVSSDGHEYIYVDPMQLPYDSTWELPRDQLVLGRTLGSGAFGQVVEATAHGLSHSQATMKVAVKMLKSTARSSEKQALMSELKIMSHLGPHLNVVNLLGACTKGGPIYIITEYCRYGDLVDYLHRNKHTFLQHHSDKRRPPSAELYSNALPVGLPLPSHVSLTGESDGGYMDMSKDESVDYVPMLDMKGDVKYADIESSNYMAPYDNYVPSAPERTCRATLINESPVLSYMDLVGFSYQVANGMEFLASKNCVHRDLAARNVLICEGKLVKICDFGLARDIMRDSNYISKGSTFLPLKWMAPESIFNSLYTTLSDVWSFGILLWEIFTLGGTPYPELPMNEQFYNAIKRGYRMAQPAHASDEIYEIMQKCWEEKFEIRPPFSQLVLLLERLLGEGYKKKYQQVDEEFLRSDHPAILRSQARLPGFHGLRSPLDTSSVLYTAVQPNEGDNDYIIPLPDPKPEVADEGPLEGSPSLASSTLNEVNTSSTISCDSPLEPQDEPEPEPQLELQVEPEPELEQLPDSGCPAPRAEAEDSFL
Chain of VEGFR2 (P35968 20-1356): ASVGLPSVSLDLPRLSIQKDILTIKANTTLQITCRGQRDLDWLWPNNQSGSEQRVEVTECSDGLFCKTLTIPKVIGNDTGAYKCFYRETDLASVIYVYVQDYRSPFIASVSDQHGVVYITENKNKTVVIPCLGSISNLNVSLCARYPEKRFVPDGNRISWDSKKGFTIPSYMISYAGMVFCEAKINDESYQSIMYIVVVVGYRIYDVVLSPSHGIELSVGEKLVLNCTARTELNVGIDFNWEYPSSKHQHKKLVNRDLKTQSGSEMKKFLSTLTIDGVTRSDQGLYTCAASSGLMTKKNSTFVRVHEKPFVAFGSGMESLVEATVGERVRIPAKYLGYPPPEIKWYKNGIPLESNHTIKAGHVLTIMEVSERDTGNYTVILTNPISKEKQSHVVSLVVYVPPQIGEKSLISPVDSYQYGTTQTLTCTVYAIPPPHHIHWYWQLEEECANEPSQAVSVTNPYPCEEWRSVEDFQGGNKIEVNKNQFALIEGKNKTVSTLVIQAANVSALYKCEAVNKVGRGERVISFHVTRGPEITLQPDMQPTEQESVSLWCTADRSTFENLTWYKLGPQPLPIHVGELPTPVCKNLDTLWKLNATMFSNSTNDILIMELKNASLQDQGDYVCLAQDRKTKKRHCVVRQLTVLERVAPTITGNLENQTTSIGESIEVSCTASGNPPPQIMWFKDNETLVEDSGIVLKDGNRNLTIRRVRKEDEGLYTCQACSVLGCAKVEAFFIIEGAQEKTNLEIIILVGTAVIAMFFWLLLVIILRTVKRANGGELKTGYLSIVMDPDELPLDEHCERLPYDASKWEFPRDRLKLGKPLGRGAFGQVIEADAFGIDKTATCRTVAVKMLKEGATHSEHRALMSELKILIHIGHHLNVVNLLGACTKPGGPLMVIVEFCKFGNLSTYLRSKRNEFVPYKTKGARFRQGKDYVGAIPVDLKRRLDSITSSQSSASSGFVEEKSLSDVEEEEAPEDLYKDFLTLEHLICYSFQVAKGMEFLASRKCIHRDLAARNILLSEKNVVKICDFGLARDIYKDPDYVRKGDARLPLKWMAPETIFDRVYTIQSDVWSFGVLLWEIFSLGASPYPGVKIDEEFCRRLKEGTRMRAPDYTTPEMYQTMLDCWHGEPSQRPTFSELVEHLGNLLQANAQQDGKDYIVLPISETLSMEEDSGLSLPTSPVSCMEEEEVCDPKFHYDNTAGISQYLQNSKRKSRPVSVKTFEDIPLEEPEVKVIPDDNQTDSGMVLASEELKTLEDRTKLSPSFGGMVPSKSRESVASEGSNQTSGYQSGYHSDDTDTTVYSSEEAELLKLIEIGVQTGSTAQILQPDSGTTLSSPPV

SMILES	IC50 [1]	IC50 (PDGFRβ)	IC50 (VEGFR2)	IC50 [2]
Cc1ccc(F)c(C(=O)Nc2ccc(C#Cc3ccc4nc(N)cn4n3)cc2)c1 [Example 20, N-{4-[(2-aminoimidazo[1,2-b]pyridazin-6-yl)ethynyl]phenyl}-2-fluoro-5-methylbenzamide]	> 10000 nM	> 10000 nM	4400 nM	> 10000 nM
Cc1ccc(F)c(C(=O)Nc2cccc(C#Cc3ccc4nc(N)cn4n3)c2)c1 [Example 21, N-{3-[(2-aminoimidazo[1,2-b]pyridazin-6-yl)ethynyl]phenyl}-2-fluoro-5-methylbenzamide]	88 nM	371 nM	1120 nM	767 nM
O=C(Nc1cccc(C#Cc2ccc3nccn3n2)c1)c1cccc(C(F)(F)F)c1 [Example 22, N-[3-(imidazo[1,2-b]pyridazin-6-ylethynyl)phenyl]-3-(trifluoromethyl)benzamide]	279 nM	1630 nM	1280 nM	628 nM
O=C(Nc1cccc(C#Cc2ccc3nccn3n2)c1)c1ccc(F)c(Cl)c1 [Example 24, 3-chloro-4-fluoro-N-[3-(imidazo[1,2-b]pyridazin-6-ylethynyl)phenyl]benzamide]	464 nM	2680 nM	1460 nM	938 nM
O=C(Nc1cccc(C#Cc2ccc3nccn3n2)c1)c1cc2ccccc2o1 [Example 25, N-[3-(imidazo[1,2-b]pyridazin-6-ylethynyl)phenyl]-1-benzofuran-2-carboxamide]	1610 nM	> 10000 nM	> 10000 nM	2720 nM
Cc1ccc(F)c(C(=O)Nc2cccc(C#Cc3ccc4nccn4n3)c2)c1 [Example 26, 2-fluoro-N-[3-(imidazo[1,2-b]pyridazin-6-ylethynyl)phenyl]-5-methylbenzamide]	1620 nM	> 10000 nM	3040 nM	6080 nM
O=C(Nc1cccc(C#Cc2ccc3nccn3n2)c1)c1ccccc1 [Example 27, N-[3-(imidazo[1,2-b]pyridazin-6-ylethynyl)phenyl]benzamide]	2360 nM	17800 nM	> 10000 nM	27 nM
